This test deals with SARS-CoV-2 Papain-like (PLpro) protease (Severe acute respiratory syndrome coronavirus 2, UniProt P0DTD1). The test is described as follows: SARS-CoV-2 Papain-like (PLpro) protease biochemical enzyme inhibition assay (ubiquitin-fluorophore substrate, Ub-R110). Particulars: Ub-R110 substrate; run in duplicate; read-out: PLpro IC50.
Consider `O=C(NCC#Cc1nccs1)C(=O)NCc1ccccc1C(=O)NC1(c2cccc3cnccc23)CC1` [Example 391], for which the half-inhibitory concentration (IC50) – broadly, the concentration that inhibits the measured activity by half – was under 100 nM.

As to `C#CCNC(=O)C(=O)NCc1ccccc1C(=O)NC1(c2cc(-c3c(C)nn(C)c3C)ccc2Cl)CC1` [Example 395], the IC50 fell in the range of 100 to 1000 nM.

In the case of `Cn1ccc(C#CCNC(=O)C(=O)NCc2ccccc2C(=O)NC2(c3ccc4ccccc4c3)CC2)n1` [Example 397], the IC50 lay in the range of 100 to 1000 nM.

On to `N#CCNC(=O)C(=O)NCc1ccccc1C(=O)NC1(c2ccc3nc(C4CC4)ccc3c2)CC1` [Example 400], for which the IC50 was under 100 nM.

For `O=C(NC/C=C\c1nccs1)C(=O)NCc1ccccc1C(=O)NC1(c2ccc3ccccc3c2)CC1` [Example 401], the half-inhibitory concentration (IC50) is 1000 to 10000 nM.

Take `N#CCCCNC(=O)C(=O)NCc1ccccc1C(=O)NC1(c2ccc3ccccc3c2)CC1` [Example 403]: the IC50 was in the range of 1000 to 10000 nM.

Consider `N#CCNC(=O)C(=O)NCc1ccccc1C(=O)NC1(c2cccn3nccc23)CC1` [Example 405], for which the half-inhibitory concentration (IC50) is 100 to 1000 nM.

Consider `N#CCNC(=O)C(=O)NCc1ccccc1C(=O)NC1(c2ccnc3c2ccn3C2CC2)CC1` [Example 406], for which the IC50 is under 100 nM.

As to `N#CCNC(=O)C(=O)NCc1ccccc1C(=O)NC1(c2ccnc3ccccc23)CC1` [Example 407], the IC50 was under 100 nM.

As for `N#CCNC(=O)C(=O)NCc1ccccc1C(=O)NC1(c2c[nH]c3ncccc23)CC1` [Example 408], the IC50 was under 100 nM.

`O=C(NCC#Cc1ccc2c(c1)CNC2=O)C(=O)NCc1ccccc1C(=O)NC1(c2ccc3ccccc3c2)CC1` [Example 410]: the IC50 lay within 100 to 1000 nM.

Regarding `N#CCCCNC(=O)C(=O)NCc1ccccc1C(=O)NC1(c2cccc3ccccc23)CC1` [Example 412], the half-inhibitory concentration (IC50) was 1000 to 10000 nM.

On to `N#CCNC(=O)C(=O)NCc1ccccc1C(=O)NC1(c2cc(-c3cnn(C4CC4)c3)nc3[nH]ccc23)CC1` [Example 414], for which the 50% inhibitory concentration (IC50) was 100 to 1000 nM.

For `N#CCCOC(=O)NCc1ccccc1C(=O)NC1(c2cc(Br)cc3ccccc23)CC1` [Example 420], the IC50 fell in the range of 1000 to 10000 nM.

As for `N#CCCCCNC(=O)C(=O)NCc1ccccc1C(=O)NC1(c2cc(Br)cc3ccccc23)CC1` [Example 421], the IC50 was in the range of 1000 to 10000 nM.

`CC(C)(O)/C=C/c1cc(C2(NC(=O)c3ccccc3CNC(=O)C(=O)NCC#N)CC2)c2ccccc2c1` [Example 422]: the half-maximal inhibitory concentration (IC50) was under 100 nM.

Consider `N#CN1CC(CNC(=O)C(=O)NCc2ccccc2C(=O)NC2(c3ccc4ccccc4c3)CC2)C1` [Example 430], for which the concentration for half-maximal inhibition (IC50) was in the range of 100 to 1000 nM.

Consider `N#CN1CC(CCNC(=O)C(=O)NCc2ccccc2C(=O)NC2(c3cccc4ccccc34)CC2)C1` [Example 433], for which the 50% inhibitory concentration (IC50) was 1000 to 10000 nM.

Take `N#CN1CC(NC(=O)C(=O)NCc2ccccc2C(=O)NC2(c3cccc4ccccc34)CC2)C1` [Example 436, N1-(1-cyanoazetidin-3-yl)-N2-(2-((1-(naphthalen-1-yl)cyclopropyl)carbamoyl)benzyl)oxalamide]: the IC50 was 100 to 1000 nM.

Turning to `N#C/C=C/CCNC(=O)C(=O)NCc1ccccc1C(=O)NC1(c2ccc3c4c(cccc24)CC3)CC1` [Example 437], the concentration for half-maximal inhibition (IC50) lay within 100 to 1000 nM.

With `C[C@@H](NC(=O)c1ccccc1CNC(=O)C(=O)NCC#N)c1cc(-c2ccsc2)cc(C(F)(F)F)c1` [Example 466], the half-inhibitory concentration (IC50) was over 10000 nM.

As to `N#CCNC(=O)C(=O)NCc1ccccc1C(=O)NC1(c2cc(-c3ccccc3)cc(C(F)(F)F)c2)CC1` [Example 468], the 50% inhibitory concentration (IC50) was in the range of 100 to 1000 nM.

Turning to `Cc1cnn(C)c1-c1cc(C(F)(F)F)cc(C2(NC(=O)c3ccccc3CNC(=O)C(=O)NCC#N)CC2)c1` [Example 474], the IC50 was 100 to 1000 nM.

Consider `C#CCNC(=O)C(=O)NCc1ccccc1C(=O)NC1(c2cc(-c3c(C)cnn3C)cc(C(F)(F)F)c2)CC1` [Example 475], for which the concentration for half-maximal inhibition (IC50) was in the range of 100 to 1000 nM.

For the molecule `Cc1nnc(-c2cc(-c3nnc(C)o3)cc(C3(NC(=O)c4ccccc4CNC(=O)C(=O)NCC#N)CC3)c2)o1` [Example 478], the concentration for half-maximal inhibition (IC50) lay in the range of 100 to 1000 nM.

For `C#CCNC(=O)C(=O)NCc1ccccc1C(=O)NC1(c2cc(-c3nnc(C)o3)cc(-c3nnc(C)o3)c2)CC1` [Example 479], the IC50 fell in the range of 100 to 1000 nM.

Regarding `Cc1nn(C)cc1-c1cc(Cl)cc(C2(NC(=O)c3ccccc3CNC(=O)C(=O)NCC#N)CC2)c1` [Example 482], the IC50 was under 100 nM.

As for `Cc1nnc(-c2cc(Cl)cc(C3(NC(=O)c4ccccc4CNC(=O)C(=O)NCC#N)CC3)c2)o1` [Example 483], the IC50 is 100 to 1000 nM.

Regarding `O=C(NCC#Cc1nccs1)C(=O)NCc1ccccc1C(=O)NC1(c2cc(Cl)cc(-c3nccs3)c2)CC1` [Example 488], the IC50 was under 100 nM.

For the molecule `C=CCNC(=O)C(=O)NCc1ccccc1C(=O)NC1(c2ccc3ccccc3c2)CC1` [Example 497], the half-maximal inhibitory concentration (IC50) is over 10000 nM.

On to `N#CN1CC[C@@H]1CNC(=O)C(=O)NCc1ccccc1C(=O)NC1(c2cccc3ccccc23)CC1` [Example 498], for which the IC50 lay in the range of 100 to 1000 nM.

Take `NC(=O)N1CC[C@@H]1CNC(=O)C(=O)NCc1ccccc1C(=O)NC1(c2cccc3ccccc23)CC1` [Example 499]: the IC50 lay in the range of 1000 to 10000 nM.

As for `NC(=O)N1CC[C@H]1CNC(=O)C(=O)NCc1ccccc1C(=O)NC1(c2cccc3ccccc23)CC1` [Example 501], the concentration for half-maximal inhibition (IC50) lay in the range of 1000 to 10000 nM.

Take `N#CN1CC[C@H](CNC(=O)C(=O)NCc2ccccc2C(=O)NC2(c3cccc4ccccc34)CC2)C1` [Example 502]: the IC50 lay in the range of 100 to 1000 nM.

`NC(=O)N1CC[C@H](CNC(=O)C(=O)NCc2ccccc2C(=O)NC2(c3cccc4ccccc34)CC2)C1` [Example 503]: the IC50 fell in the range of 1000 to 10000 nM.

As for `NC(=O)N1CCC[C@H]1CNC(=O)C(=O)NCc1ccccc1C(=O)NC1(c2cccc3ccccc23)CC1` [Example 505], the 50% inhibitory concentration (IC50) was in the range of 1000 to 10000 nM.

On to `CC(C)(C)OC(=O)N1CCC[C@@H]1CNC(=O)C(=O)NCc1ccccc1C(=O)NC1(c2cccc3ccccc23)CC1` [Example 506], for which the IC50 is over 10000 nM.

In the case of `CC(C)(C)OC(=O)N1CC[C@@H](CNC(=O)C(=O)NCc2ccccc2C(=O)NC2(c3cccc4ccccc34)CC2)C1` [Example 507], the 50% inhibitory concentration (IC50) is over 10000 nM.

For `N#CN1CCC[C@@H]1CNC(=O)C(=O)NCc1ccccc1C(=O)NC1(c2cccc3ccccc23)CC1` [Example 508], the IC50 lay within 100 to 1000 nM.

Regarding `COc1cc(C2(NC(=O)c3ccccc3CNC(=O)C(=O)NC[C@@H]3CCCN3)CC2)cc2cn(C3CC3)nc12` [Example 511], the IC50 lay within 1000 to 10000 nM.

For the molecule `COc1cc(C2(NC(=O)c3ccccc3CNC(=O)C(=O)NC[C@@H]3CCN3)CC2)cc2cn(C3CC3)nc12` [Example 512], the half-inhibitory concentration (IC50) lay within 1000 to 10000 nM.

Regarding `COc1cc(C2(NC(=O)c3ccccc3CNC(=O)C(=O)NCC(O)C(F)(F)F)CC2)cc2cn(C3CC3)nc12` (stereo not shown) [Example 513], the IC50 is over 10000 nM.

`COc1cc(C2(NC(=O)c3ccccc3CNC(=O)C(=O)NC[C@@H]3CCN3C#N)CC2)cc2cn(C3CC3)nc12` [Example 516]: the half-maximal inhibitory concentration (IC50) was under 100 nM.

For `O=C(C#CCNC(=O)C(=O)NCc1ccccc1C(=O)NC1(c2ccc3ccccc3c2)CC1)Nc1ccccc1` [Example 521], the IC50 is 100 to 1000 nM.

For the molecule `O=C(C#CCNC(=O)C(=O)NCc1ccccc1C(=O)NC1(c2cc(-c3cccs3)cc(C(F)(F)F)c2)CC1)NC1CC1` [Example 522], the IC50 fell in the range of 100 to 1000 nM.

On to `O=C(NCC#CC1CC1)C(=O)NCc1ccccc1C(=O)NC1(c2ccc3ccccc3c2)CC1` [Example 523], for which the concentration for half-maximal inhibition (IC50) is over 10000 nM.

`C#CCNC(=O)C(=O)NCc1ccccc1C(=O)NC1(c2cccc3c2ccn3C)CC1` [Example 530]: the half-inhibitory concentration (IC50) fell in the range of 100 to 1000 nM.

In the case of `C[C@@H](C#Cc1nccs1)NC(=O)C(=O)NCc1ccccc1C(=O)NC1(c2cccc3c2ccn3C)CC1` [Example 531], the half-maximal inhibitory concentration (IC50) was under 100 nM.

As for `Cn1ccc2c(C3(NC(=O)c4ccccc4CNC(=O)C(=O)NCC#N)CC3)cccc21` [Example 533], the IC50 fell in the range of 100 to 1000 nM.

For the molecule `O=C(C#CCNC(=O)C(=O)NCc1ccccc1C(=O)NC1(c2cc(-c3cnn(C4CC4)c3)cc(C(F)(F)F)c2)CC1)NC1CC1` [Example 534], the IC50 fell in the range of 100 to 1000 nM.

On to `N#CCNC(=O)C(=O)NCc1ccccc1C(=O)NC1(c2ccc(-c3ccc(F)cc3)cc2)CC1` [Example 542], for which the IC50 is over 10000 nM.

For the molecule `N#CCNC(=O)C(=O)NCc1ccccc1C(=O)NC1(c2ccc(Br)cc2)CC1` [Example 544], the half-maximal inhibitory concentration (IC50) was 1000 to 10000 nM.

For the molecule `COC(=O)/C=C/CN(C)C(=O)C(=O)NCc1ccccc1C(=O)N[C@H](C)c1cccc2ccccc12` [Example 546], the concentration for half-maximal inhibition (IC50) is 1000 to 10000 nM.

For the molecule `COC(=O)/C=C/CNC(=O)C(=O)N(C)Cc1ccccc1C(=O)N[C@H](C)c1cccc2ccccc12` [Example 547], the half-maximal inhibitory concentration (IC50) is over 10000 nM.

As for `CC(C)(C)OC(=O)NNC(=O)/C=C/CNC(=O)C(=O)NCc1ccccc1C(=O)NC1(c2cccc3ccccc23)CC1` [Example 548], the concentration for half-maximal inhibition (IC50) fell in the range of 100 to 1000 nM.

As for `C[C@@H](NC(=O)c1ccccc1CNC(=O)C(=O)NC/C=C/C(=O)N1CCCNC(=O)C1)c1cccc2ccccc12` [Example 549], the 50% inhibitory concentration (IC50) was 100 to 1000 nM.

`C[C@@H](NC(=O)c1ccccc1CNC(=O)C(=O)NC/C=C/C(=O)N1CC[C@H](C#N)C1)c1cccc2ccccc12` [Example 550]: the IC50 was over 10000 nM.

Turning to `C[C@@H](NC(=O)c1ccccc1CNC(=O)C(=O)NC/C=C/C(=O)NC(C)(C)CO)c1cccc2ccccc12` [Example 551], the IC50 is 1000 to 10000 nM.

`CCCOC(=O)/C=C/CNC(=O)C(=O)NCc1ccccc1C(=O)NC1(c2cccc3ccccc23)CC1` [Example 552]: the half-inhibitory concentration (IC50) is 100 to 1000 nM.

Take `NNC(=O)/C=C/CNC(=O)C(=O)NCc1ccccc1C(=O)NC1(c2cccc3ccccc23)CC1` [Example 553]: the half-inhibitory concentration (IC50) was 100 to 1000 nM.

As to `Cc1cccc(C)c1NC(=O)/C=C/CNC(=O)C(=O)NCc1ccccc1C(=O)NC1(c2cccc3ccccc23)CC1` [Example 562], the 50% inhibitory concentration (IC50) was over 10000 nM.

For the molecule `COCC(C)(C)NC(=O)/C=C/CNC(=O)C(=O)NCc1ccccc1C(=O)N[C@H](C)c1cccc2ccccc12` [Example 565], the 50% inhibitory concentration (IC50) lay within 1000 to 10000 nM.

As for `O=C(NC/C=C/c1ccccn1)C(=O)NCc1ccccc1C(=O)NC1(c2ccc3ccccc3c2)CC1` [Example 578], the 50% inhibitory concentration (IC50) was in the range of 100 to 1000 nM.

Turning to `COc1cc(C2(NC(=O)c3ccccc3CNC(=O)C(=O)NC/C=C/c3cnccn3)CC2)cc2cn(C3CC3)nc12` [Example 579], the half-maximal inhibitory concentration (IC50) lay in the range of 100 to 1000 nM.

(Values after patent publication US20240327334A1, “Covalent Inhibitors As Antiviral Agents” (Enanta Pharmaceuticals, Inc., priority 2022, published 2024).)
